What all share (type): biochemical
Test [1] addresses α-glucosidase from S. cerevisiae (GH13). As to the kind of experiment: Ki determination, S. cerevisiae α-glucosidase. Particulars: 37 °C, pH 7.0, substrate pNP α-Glc; read-out: Ki S. cer. (α-Glc) (GH13). As to the method: Kinetic studies were performed at 37 °C in an appropriate buffer (specific conditions depicted below). In a typical assay, the enzyme was incubated with different inhibitor concentrations for up to 5 min before initiating the reaction by the addition of substrate. The initial reaction rate was measured by monitoring the increase in absorbance at 400 nm for up to ten minutes using a Cary4000 (Varian, Palo Alto, CA, USA). Ki determinations were performed using at least two different substrate concentrations. For each inhibitor, a range of four to six inhibitor concentrations bracketing the ultimately determined Ki value was used for each substrate concentration. Dixon plots (1/v vs. [I]) were constructed to validate the use of competitive inhibition model. The data were then fit using non-linear regression analysis with Grafit 7.0 [Erithacus Software, UK]. […] S. cerevisiae α-Glucosidase: 50 mM sodium phosphate buffer (pH 7.0).

Test [2] concerns the target lac Z β-galactosidase from E. coli (GH2) (Escherichia coli, UniProt P00722). Put plainly: Ki determination, E. coli lac Z β-galactosidase. As to the method:
(§1) Kinetic studies were performed at 37 °C in an appropriate buffer (specific conditions depicted below). In a typical assay, the enzyme was incubated with different inhibitor concentrations for up to 5 min before initiating the reaction by the addition of substrate. The initial reaction rate was measured by monitoring the increase in absorbance at 400 nm for up to ten minutes using a Cary4000 (Varian, Palo Alto, CA, USA). Ki determinations were performed using at least two different substrate concentrations. For each inhibitor, a range of four to six inhibitor concentrations bracketing the ultimately determined Ki value was used for each substrate concentration. Dixon plots (1/v vs. [I]) were constructed to validate the use of competitive inhibition model. The data were then fit using non-linear regression analysis with Grafit 7.0 [Erithacus Software, UK].
(§2) n.i. stands for no inhibition or weak inhibition with an estimated Ki value higher than 1 mM.
E. coli lac z β-galactosidase: 50 mM sodium phosphate, 1.0 mM MgCl2 (pH 7). Substrate: pNP β-Gal, Km = 60 µM.

Test [3] deals with T1, β-glucosidase/β-galactosidase from Agrobacterium sp. (Abg, GH1) (Agrobacterium sp., UniProt P12614).
T1 sequence (P12614 1-459): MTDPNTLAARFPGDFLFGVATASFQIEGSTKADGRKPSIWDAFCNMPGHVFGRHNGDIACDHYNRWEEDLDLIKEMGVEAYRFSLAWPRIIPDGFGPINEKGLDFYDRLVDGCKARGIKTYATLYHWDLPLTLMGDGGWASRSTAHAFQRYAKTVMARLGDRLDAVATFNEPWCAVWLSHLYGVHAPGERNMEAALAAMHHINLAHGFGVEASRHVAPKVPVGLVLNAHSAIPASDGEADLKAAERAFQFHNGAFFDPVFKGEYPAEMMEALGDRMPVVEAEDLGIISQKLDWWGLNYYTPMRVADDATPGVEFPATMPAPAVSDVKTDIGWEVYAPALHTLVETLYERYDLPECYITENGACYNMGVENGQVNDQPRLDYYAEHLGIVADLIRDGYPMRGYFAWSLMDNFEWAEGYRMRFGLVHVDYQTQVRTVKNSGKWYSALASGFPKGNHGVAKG
Put plainly: Ki determination, Agrobacterium sp. β-glucosidase/β-galactosidase (Abg). As to conditions: for Ki: 37 °C, pH 7, substrate pNP β-Gal, read-out: Ki Abg (β-Glc/Gal) (GH1). As to the method:
as §1, §2
Agrobacterium sp. β-glucosidase: [69, 70] 50 mM sodium phosphate buffer (pH 7).

Chain of lac Z β-galactosidase from E. coli (GH2) (P00722 2-1024): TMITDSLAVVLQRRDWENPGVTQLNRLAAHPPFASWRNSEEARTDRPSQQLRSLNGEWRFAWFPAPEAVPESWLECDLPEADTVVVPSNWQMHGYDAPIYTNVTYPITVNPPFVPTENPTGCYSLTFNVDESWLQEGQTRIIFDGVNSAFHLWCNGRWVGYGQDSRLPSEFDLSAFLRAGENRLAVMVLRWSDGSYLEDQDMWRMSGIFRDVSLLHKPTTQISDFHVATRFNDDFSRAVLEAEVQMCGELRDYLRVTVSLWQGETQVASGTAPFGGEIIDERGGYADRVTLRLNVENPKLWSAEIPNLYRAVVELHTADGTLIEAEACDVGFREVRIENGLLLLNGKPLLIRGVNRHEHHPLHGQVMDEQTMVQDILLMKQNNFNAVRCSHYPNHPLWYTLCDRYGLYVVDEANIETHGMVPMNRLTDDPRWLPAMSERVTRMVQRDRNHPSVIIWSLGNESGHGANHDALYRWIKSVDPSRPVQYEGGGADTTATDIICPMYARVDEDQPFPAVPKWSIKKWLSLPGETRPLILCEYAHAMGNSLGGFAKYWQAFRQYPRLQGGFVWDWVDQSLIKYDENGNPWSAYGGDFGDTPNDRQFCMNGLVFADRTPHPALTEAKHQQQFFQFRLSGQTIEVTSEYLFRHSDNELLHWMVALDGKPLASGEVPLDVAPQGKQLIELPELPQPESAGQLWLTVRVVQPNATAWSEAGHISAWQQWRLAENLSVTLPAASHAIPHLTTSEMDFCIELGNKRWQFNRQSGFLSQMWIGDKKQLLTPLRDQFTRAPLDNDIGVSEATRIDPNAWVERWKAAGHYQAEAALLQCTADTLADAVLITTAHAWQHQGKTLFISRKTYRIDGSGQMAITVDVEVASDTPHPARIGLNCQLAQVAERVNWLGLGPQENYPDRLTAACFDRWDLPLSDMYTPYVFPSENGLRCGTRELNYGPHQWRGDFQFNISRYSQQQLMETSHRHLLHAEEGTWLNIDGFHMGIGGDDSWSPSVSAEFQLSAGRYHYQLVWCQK

As for `CN(C)c1cccc2c(S(=O)(=O)NCCCCCC[C@H]3NC[C@@H](O)[C@@H](O)[C@H]3CO)cccc12` [Compound 22], the Ki is more than 1000 µM in test [1], 0.0004 µM in test [2] and 0.0003 µM in test [3].
Regarding `CCCCCCCCNC1C=C(CO)C(O)C(O)C1O` (stereo not drawn) [Compound 1, N-octyl-epi-valienamine], the Ki in test [1] is more than 1000 µM; in test [2] it was 2.8 µM; in test [3], 7.7 µM.
For the molecule `CN(C)c1cccc2c(S(=O)(=O)NCCCCCCN[C@H]3[C@H](F)[C@@H](O)[C@@H](O)[C@H]3CO)cccc12` [Compound 37, (1S,2S,3S,4R,5R)-4-(6′-Dansylaminohexyl)amino-3-fluoro-5-hydroxymethylcyclopentane-1,2-diol], the figures for the Ki in test [1], in test [2] and in test [3] were 22.5 µM, 5.2 µM and 0.077 µM, respectively. Further, in test [2] (compared to inhibitor 17), the “fold weaker binding than 17, GH2 bacterial glycosidase” value is listed as “approx. 500 fold”. Further, in test [3] (compared to inhibitor 17), the “fold weaker binding than 17, GH1 bacterial glycosidase” value came to 64 fold.
On to `CN(C)c1cccc2c(S(=O)(=O)NCCCCCCN[C@H]3C[C@@H](O)[C@@H](O)[C@H]3CO)cccc12` [Compound 31, (1R,2S,3R,4S)-3-Hydroxymethyl-4-(6′-dansylaminohexylamino)cyclopentane-1,2-diol], for which the Ki is more than 1000 µM in test [1], 0.0041 µM in test [2] and 0.0035 µM in test [3].
The corresponding values for `CCCCCCCCN[C@H]1[C@H](O)[C@@H](O)[C@@H](O)[C@H]1CO` [Compound 16] are more than 1000 µM, 0.0132 µM and 0.001 µM.
